In BigSolDB 2.1:

COC(=O)[C@@H](N)CS.Cl
solubility (mole fraction) (in 1,4-dioxane, 288.15 K): 0.00083
solubility (mole fraction) (in 1,4-dioxane, 293.15 K): 0.001
solubility (mole fraction) (in 1,4-dioxane, 298.15 K): 0.0013
solubility (mole fraction) (in 1,4-dioxane, 303.15 K): 0.00147
solubility (mole fraction) (in 1,4-dioxane, 308.15 K): 0.00184
solubility (mole fraction) (in 1,4-dioxane, 313.15 K): 0.00211
solubility (mole fraction) (in 1,4-dioxane, 318.15 K): 0.00232
solubility (mole fraction) (in 1,4-dioxane, 323.15 K): 0.00269
solubility (mole fraction) (in 1,4-dioxane, 328.15 K): 0.00305
solubility (mole fraction) (in 1,4-dioxane, 333.15 K): 0.00349
solubility (mole fraction) (in 2-butanone, 283.15 K): 0.00065
solubility (mole fraction) (in 2-butanone, 288.15 K): 0.00084
solubility (mole fraction) (in 2-butanone, 293.15 K): 0.00108
solubility (mole fraction) (in 2-butanone, 298.15 K): 0.00132
solubility (mole fraction) (in 2-butanone, 303.15 K): 0.00164
solubility (mole fraction) (in 2-butanone, 308.15 K): 0.00192
solubility (mole fraction) (in 2-butanone, 313.15 K): 0.00225
solubility (mole fraction) (in 2-butanone, 318.15 K): 0.0025
solubility (mole fraction) (in 2-butanone, 323.15 K): 0.00333
solubility (mole fraction) (in 2-butanone, 328.15 K): 0.00418
solubility (mole fraction) (in 2-butanone, 333.15 K): 0.00573
solubility (mole fraction) (in acetone, 283.15 K): 0.00062
solubility (mole fraction) (in acetone, 288.15 K): 0.00073
solubility (mole fraction) (in acetone, 293.15 K): 0.00082
solubility (mole fraction) (in acetone, 298.15 K): 0.00087
solubility (mole fraction) (in acetone, 303.15 K): 0.00093
solubility (mole fraction) (in acetone, 308.15 K): 0.00101
solubility (mole fraction) (in acetone, 313.15 K): 0.00111
solubility (mole fraction) (in acetone, 318.15 K): 0.00124
solubility (mole fraction) (in acetone, 323.15 K): 0.00152
solubility (mole fraction) (in acetonitrile, 283.15 K): 0.00021
solubility (mole fraction) (in acetonitrile, 288.15 K): 0.00029
solubility (mole fraction) (in acetonitrile, 293.15 K): 0.00032
solubility (mole fraction) (in acetonitrile, 298.15 K): 0.0004
solubility (mole fraction) (in acetonitrile, 303.15 K): 0.00043
solubility (mole fraction) (in acetonitrile, 308.15 K): 0.0005
solubility (mole fraction) (in acetonitrile, 313.15 K): 0.00062
solubility (mole fraction) (in acetonitrile, 318.15 K): 0.00091
solubility (mole fraction) (in acetonitrile, 323.15 K): 0.00098
solubility (mole fraction) (in acetonitrile, 328.15 K): 0.00104
solubility (mole fraction) (in acetonitrile, 333.15 K): 0.00123
solubility (mole fraction) (in dichloromethane, 283.15 K): 5e-05
solubility (mole fraction) (in dichloromethane, 288.15 K): 7e-05
solubility (mole fraction) (in dichloromethane, 293.15 K): 9e-05
solubility (mole fraction) (in dichloromethane, 298.15 K): 0.00011
solubility (mole fraction) (in dichloromethane, 303.15 K): 0.00013
solubility (mole fraction) (in ethanol, 283.15 K): 0.0232
solubility (mole fraction) (in ethanol, 288.15 K): 0.0257
solubility (mole fraction) (in ethanol, 293.15 K): 0.029
solubility (mole fraction) (in ethanol, 298.15 K): 0.0337
solubility (mole fraction) (in ethanol, 303.15 K): 0.0428
solubility (mole fraction) (in ethanol, 308.15 K): 0.0471
solubility (mole fraction) (in ethanol, 313.15 K): 0.0536
solubility (mole fraction) (in ethanol, 318.15 K): 0.0622
solubility (mole fraction) (in ethanol, 323.15 K): 0.0722
solubility (mole fraction) (in ethanol, 328.15 K): 0.0864
solubility (mole fraction) (in ethanol, 333.15 K): 0.1
solubility (mole fraction) (in ethyl acetate, 283.15 K): 7e-05
solubility (mole fraction) (in ethyl acetate, 288.15 K): 0.0001
solubility (mole fraction) (in ethyl acetate, 293.15 K): 0.00012
solubility (mole fraction) (in ethyl acetate, 298.15 K): 0.00015
solubility (mole fraction) (in ethyl acetate, 303.15 K): 0.00018
solubility (mole fraction) (in ethyl acetate, 308.15 K): 0.00023
solubility (mole fraction) (in ethyl acetate, 313.15 K): 0.00027
solubility (mole fraction) (in ethyl acetate, 318.15 K): 0.0003
solubility (mole fraction) (in ethyl acetate, 323.15 K): 0.00032
solubility (mole fraction) (in ethyl acetate, 328.15 K): 0.00042
solubility (mole fraction) (in ethyl acetate, 333.15 K): 0.00052
solubility (mole fraction) (in isobutanol, 283.15 K): 0.00393
solubility (mole fraction) (in isobutanol, 288.15 K): 0.00437
solubility (mole fraction) (in isobutanol, 293.15 K): 0.00478
solubility (mole fraction) (in isobutanol, 298.15 K): 0.00541
solubility (mole fraction) (in isobutanol, 303.15 K): 0.00634
solubility (mole fraction) (in isobutanol, 308.15 K): 0.00718
solubility (mole fraction) (in isobutanol, 313.15 K): 0.0086
solubility (mole fraction) (in isobutanol, 318.15 K): 0.00972
solubility (mole fraction) (in isobutanol, 323.15 K): 0.0125
solubility (mole fraction) (in isobutanol, 328.15 K): 0.0162
solubility (mole fraction) (in isobutanol, 333.15 K): 0.0196
solubility (mole fraction) (in isopropanol, 283.15 K): 0.0036
solubility (mole fraction) (in isopropanol, 288.15 K): 0.00389
solubility (mole fraction) (in isopropanol, 293.15 K): 0.00422
solubility (mole fraction) (in isopropanol, 298.15 K): 0.00512
solubility (mole fraction) (in isopropanol, 303.15 K): 0.00585
solubility (mole fraction) (in isopropanol, 308.15 K): 0.00648
solubility (mole fraction) (in isopropanol, 313.15 K): 0.00806
solubility (mole fraction) (in isopropanol, 318.15 K): 0.0097
solubility (mole fraction) (in isopropanol, 323.15 K): 0.0127
solubility (mole fraction) (in isopropanol, 328.15 K): 0.0153
solubility (mole fraction) (in isopropanol, 333.15 K): 0.0188
solubility (mole fraction) (in methanol, 283.15 K): 0.0906
solubility (mole fraction) (in methanol, 288.15 K): 0.0944
solubility (mole fraction) (in methanol, 293.15 K): 0.106
solubility (mole fraction) (in methanol, 298.15 K): 0.114
solubility (mole fraction) (in methanol, 303.15 K): 0.127
solubility (mole fraction) (in methanol, 308.15 K): 0.139
solubility (mole fraction) (in methanol, 313.15 K): 0.155
solubility (mole fraction) (in methanol, 318.15 K): 0.168
solubility (mole fraction) (in methanol, 323.15 K): 0.187
solubility (mole fraction) (in methanol, 328.15 K): 0.212
solubility (mole fraction) (in methanol, 333.15 K): 0.257
solubility (mole fraction) (in n-butanol, 283.15 K): 0.00537
solubility (mole fraction) (in n-butanol, 288.15 K): 0.00599
solubility (mole fraction) (in n-butanol, 293.15 K): 0.0067
solubility (mole fraction) (in n-butanol, 298.15 K): 0.00847
solubility (mole fraction) (in n-butanol, 303.15 K): 0.0106
solubility (mole fraction) (in n-butanol, 308.15 K): 0.0124
solubility (mole fraction) (in n-butanol, 313.15 K): 0.0136
solubility (mole fraction) (in n-butanol, 318.15 K): 0.0164
solubility (mole fraction) (in n-butanol, 323.15 K): 0.0198
solubility (mole fraction) (in n-butanol, 328.15 K): 0.0238
solubility (mole fraction) (in n-butanol, 333.15 K): 0.0306
solubility (mole fraction) (in n-pentanol, 283.15 K): 0.0039
solubility (mole fraction) (in n-pentanol, 288.15 K): 0.00462
solubility (mole fraction) (in n-pentanol, 293.15 K): 0.0054
solubility (mole fraction) (in n-pentanol, 298.15 K): 0.00662
solubility (mole fraction) (in n-pentanol, 303.15 K): 0.00824
solubility (mole fraction) (in n-pentanol, 308.15 K): 0.00924
solubility (mole fraction) (in n-pentanol, 313.15 K): 0.0111
solubility (mole fraction) (in n-pentanol, 318.15 K): 0.0125
solubility (mole fraction) (in n-pentanol, 323.15 K): 0.0149
solubility (mole fraction) (in n-pentanol, 328.15 K): 0.0187
solubility (mole fraction) (in n-pentanol, 333.15 K): 0.0236
solubility (mole fraction) (in n-propanol, 283.15 K): 0.00805
solubility (mole fraction) (in n-propanol, 288.15 K): 0.00883
solubility (mole fraction) (in n-propanol, 293.15 K): 0.0106
solubility (mole fraction) (in n-propanol, 298.15 K): 0.0124
solubility (mole fraction) (in n-propanol, 303.15 K): 0.0145
solubility (mole fraction) (in n-propanol, 308.15 K): 0.0161
solubility (mole fraction) (in n-propanol, 313.15 K): 0.0193
solubility (mole fraction) (in n-propanol, 318.15 K): 0.0219
solubility (mole fraction) (in n-propanol, 323.15 K): 0.0272
solubility (mole fraction) (in n-propanol, 328.15 K): 0.0306
solubility (mole fraction) (in n-propanol, 333.15 K): 0.0384
solubility (mole fraction) (in sec-butanol, 283.15 K): 0.00252
solubility (mole fraction) (in sec-butanol, 288.15 K): 0.00265
solubility (mole fraction) (in sec-butanol, 293.15 K): 0.00283
solubility (mole fraction) (in sec-butanol, 298.15 K): 0.00372
solubility (mole fraction) (in sec-butanol, 303.15 K): 0.00416
solubility (mole fraction) (in sec-butanol, 308.15 K): 0.00455
solubility (mole fraction) (in sec-butanol, 313.15 K): 0.00513
solubility (mole fraction) (in sec-butanol, 318.15 K): 0.0063
solubility (mole fraction) (in sec-butanol, 323.15 K): 0.0082
solubility (mole fraction) (in sec-butanol, 328.15 K): 0.00958
solubility (mole fraction) (in sec-butanol, 333.15 K): 0.0112
